Results as given in patent US8916593B2, “Alkoxy-substituted 2-aminopyridines as ALK inhibitors” (Pfizer Inc., priority 2010, dated 2014).
Structures can show the parent of a compound that is named as a salt. Where two headings read alike, the source gives them in different places.

Columns and labels:
[1] = biological target: EML4-ALK wt v1 in NIH-3T3 cells (Homo sapiens, UniProt Q9UM73)
[2] = biological target: T1, human recombinant wild-type ALK kinase domain (amino acids 1093-1411) (Homo sapiens, UniProt Q9UM73); experiment: ALK enzyme assay 2 (microfluidic mobility shift assay); type: biochemical;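 also: kinase reaction run 1 h at room temperature, conversion quantified by electrophoretic separation of fluorescent peptide substrate from phosphorylated product, about 15-20% turnover without inhibitor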
T1 construct: ALK kinase domain (amino acids 1093-1411); made in house
T1 sequence (Q9UM73 1093-1411): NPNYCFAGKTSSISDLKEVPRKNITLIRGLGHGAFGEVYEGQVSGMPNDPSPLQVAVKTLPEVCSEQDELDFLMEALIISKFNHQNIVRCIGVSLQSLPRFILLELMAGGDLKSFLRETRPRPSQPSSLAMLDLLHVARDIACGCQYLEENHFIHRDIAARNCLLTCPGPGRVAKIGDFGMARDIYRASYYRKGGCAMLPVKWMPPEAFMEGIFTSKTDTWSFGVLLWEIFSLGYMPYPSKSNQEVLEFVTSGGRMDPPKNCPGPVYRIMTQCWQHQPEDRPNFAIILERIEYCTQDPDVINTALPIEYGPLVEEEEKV
Description: The reactions were incubated for 1 h at room temperature, stopped by the addition of 0.1 M EDTA, pH 8, and the extent of reactions (˜15-20% conversion with no inhibitor) was determined after electrophoretic separation of the fluorescently labeled peptide substrate and phosphorylated product on an LabChip EZ Reader II (Caliper Life Sciences, Hopkinton, Mass.).

ALK enzyme = biological target: T2, ALK enzyme (Homo sapiens, UniProt Q9UM73); experiment: ALK enzymatic activity assay 1; type: biochemical
T2 construct: purchased Invitrogen PV4185
T2 sequence (Q9UM73 19-1620): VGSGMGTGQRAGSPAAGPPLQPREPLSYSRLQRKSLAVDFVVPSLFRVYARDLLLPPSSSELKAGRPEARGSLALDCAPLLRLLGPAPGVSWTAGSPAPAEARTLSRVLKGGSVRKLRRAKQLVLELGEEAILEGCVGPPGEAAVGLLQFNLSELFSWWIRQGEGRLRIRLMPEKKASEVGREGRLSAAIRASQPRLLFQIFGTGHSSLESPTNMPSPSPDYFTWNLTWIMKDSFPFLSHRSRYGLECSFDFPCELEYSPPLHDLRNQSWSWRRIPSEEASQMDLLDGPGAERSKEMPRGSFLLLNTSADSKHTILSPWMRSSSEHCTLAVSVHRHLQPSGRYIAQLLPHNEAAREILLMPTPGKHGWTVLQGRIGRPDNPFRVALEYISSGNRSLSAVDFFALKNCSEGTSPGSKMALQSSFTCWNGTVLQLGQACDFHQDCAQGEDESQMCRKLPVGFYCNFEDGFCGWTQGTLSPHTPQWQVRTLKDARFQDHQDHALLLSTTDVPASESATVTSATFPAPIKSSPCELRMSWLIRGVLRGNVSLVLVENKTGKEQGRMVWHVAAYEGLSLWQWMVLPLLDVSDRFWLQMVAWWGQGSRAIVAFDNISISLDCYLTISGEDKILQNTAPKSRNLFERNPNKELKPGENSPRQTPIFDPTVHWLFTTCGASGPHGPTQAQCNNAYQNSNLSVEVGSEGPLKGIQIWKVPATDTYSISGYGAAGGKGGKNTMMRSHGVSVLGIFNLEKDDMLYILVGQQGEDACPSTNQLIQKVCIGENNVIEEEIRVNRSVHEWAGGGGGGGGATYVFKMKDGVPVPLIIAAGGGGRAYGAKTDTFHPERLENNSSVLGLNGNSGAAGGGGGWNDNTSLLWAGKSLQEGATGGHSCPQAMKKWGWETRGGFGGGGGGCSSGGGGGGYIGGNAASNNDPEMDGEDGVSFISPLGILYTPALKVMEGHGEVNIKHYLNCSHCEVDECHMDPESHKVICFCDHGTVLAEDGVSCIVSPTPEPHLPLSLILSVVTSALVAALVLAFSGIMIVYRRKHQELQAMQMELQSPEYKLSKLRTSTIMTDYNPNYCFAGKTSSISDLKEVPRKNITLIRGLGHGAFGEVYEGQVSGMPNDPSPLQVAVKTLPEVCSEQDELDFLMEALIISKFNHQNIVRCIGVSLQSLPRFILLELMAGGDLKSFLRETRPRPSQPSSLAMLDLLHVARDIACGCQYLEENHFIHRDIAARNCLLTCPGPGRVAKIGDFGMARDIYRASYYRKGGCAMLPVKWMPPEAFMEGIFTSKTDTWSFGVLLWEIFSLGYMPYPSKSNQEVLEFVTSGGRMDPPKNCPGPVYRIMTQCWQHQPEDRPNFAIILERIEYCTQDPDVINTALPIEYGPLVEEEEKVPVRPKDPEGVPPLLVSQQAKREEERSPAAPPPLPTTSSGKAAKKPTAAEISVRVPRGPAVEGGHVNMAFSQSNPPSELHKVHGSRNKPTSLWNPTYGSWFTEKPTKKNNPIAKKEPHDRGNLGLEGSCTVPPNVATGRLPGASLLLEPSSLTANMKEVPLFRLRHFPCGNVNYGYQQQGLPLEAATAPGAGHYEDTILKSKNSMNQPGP
Description: ALK Enzymatic Activity Assay 1
Compounds were added at a final concentration of 1% DMSO in half-log dilutions, starting at 20 μM final concentration. The reactions were initiated by the addition of 10 μL of peptide/ATP mix to 10 μL enzyme and 2 μL of compound in 384-well plate. […] On the 12-sipper chip, substrate and phosphorylated product were separated with an upstream voltage of −2650 V, a downstream voltage of −500 V, and a screen pressure of −1.5 psi. The relative peak heights of substrate and product were measured and ratios were calculated using HTS Well Analyzer Software version 5.2.43 from the manufacturer.

cMet enzyme = biological target: T3, cMet enzyme (Homo sapiens, UniProt P08581); experiment: cMet enzymatic activity assay; type: biochemical; settings: purified cMet enzyme 7.5 nM, ATP 17 μM (Km)
T3 construct: RTC Lot#032006
T3 sequence (P08581 25-1390): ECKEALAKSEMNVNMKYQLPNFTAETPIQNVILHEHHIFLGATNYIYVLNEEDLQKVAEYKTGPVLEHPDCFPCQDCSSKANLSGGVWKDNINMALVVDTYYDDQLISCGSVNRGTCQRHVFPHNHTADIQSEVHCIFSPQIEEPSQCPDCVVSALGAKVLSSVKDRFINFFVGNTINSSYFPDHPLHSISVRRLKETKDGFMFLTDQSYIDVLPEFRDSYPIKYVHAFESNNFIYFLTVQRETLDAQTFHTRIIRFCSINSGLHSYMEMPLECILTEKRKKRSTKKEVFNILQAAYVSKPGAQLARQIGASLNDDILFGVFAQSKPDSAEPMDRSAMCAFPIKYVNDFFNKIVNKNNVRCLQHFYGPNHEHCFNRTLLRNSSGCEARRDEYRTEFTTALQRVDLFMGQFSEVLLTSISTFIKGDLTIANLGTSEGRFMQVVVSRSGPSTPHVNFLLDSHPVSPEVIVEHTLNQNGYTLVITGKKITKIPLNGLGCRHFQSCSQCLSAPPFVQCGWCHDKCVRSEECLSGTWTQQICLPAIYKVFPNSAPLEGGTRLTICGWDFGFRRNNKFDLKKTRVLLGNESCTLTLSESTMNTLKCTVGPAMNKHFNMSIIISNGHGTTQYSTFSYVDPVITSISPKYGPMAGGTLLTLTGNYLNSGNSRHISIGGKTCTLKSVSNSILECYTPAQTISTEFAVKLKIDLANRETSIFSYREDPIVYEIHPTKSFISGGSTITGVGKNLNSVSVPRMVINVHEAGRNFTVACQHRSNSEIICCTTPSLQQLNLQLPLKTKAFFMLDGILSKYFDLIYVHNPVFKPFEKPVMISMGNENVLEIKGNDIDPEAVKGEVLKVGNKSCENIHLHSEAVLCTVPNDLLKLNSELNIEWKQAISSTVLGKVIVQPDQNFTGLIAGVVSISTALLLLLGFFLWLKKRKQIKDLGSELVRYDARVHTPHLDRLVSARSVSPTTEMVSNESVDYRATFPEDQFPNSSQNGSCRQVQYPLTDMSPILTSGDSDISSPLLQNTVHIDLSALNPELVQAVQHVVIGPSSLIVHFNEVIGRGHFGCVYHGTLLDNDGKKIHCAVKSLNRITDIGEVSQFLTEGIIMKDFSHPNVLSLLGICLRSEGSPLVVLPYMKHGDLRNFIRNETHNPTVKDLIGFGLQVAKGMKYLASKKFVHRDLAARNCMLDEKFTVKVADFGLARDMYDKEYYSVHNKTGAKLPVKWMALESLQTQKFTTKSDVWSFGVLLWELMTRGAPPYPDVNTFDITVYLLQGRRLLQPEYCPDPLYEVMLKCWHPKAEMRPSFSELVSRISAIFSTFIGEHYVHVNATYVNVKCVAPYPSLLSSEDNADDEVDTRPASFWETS
Description: cMet Enzymatic Activity Assay
Compounds were added at a final concentration of 2% DMSO in half-log dilutions, starting at 20 μM final concentration. The reactions were initiated by addition of 10 μL of peptide/ATP mix to 10 μL enzyme and 5 μL of compound in 384-well plate. […] Substrate and phosphorylated product were separated with an upstream voltage of −2650 V, a downstream voltage of −500V, and a screen pressure of −1.5 psi. The relative peak heights of substrate and product were measured and ratios were calculated using HTS Well Analyzer Software version 5.2.43 from the manufacturer.

EML4-ALK wt v1 in NIH-3T3 cells, sequence (Q9UM73 with tags, fused parts or gaps): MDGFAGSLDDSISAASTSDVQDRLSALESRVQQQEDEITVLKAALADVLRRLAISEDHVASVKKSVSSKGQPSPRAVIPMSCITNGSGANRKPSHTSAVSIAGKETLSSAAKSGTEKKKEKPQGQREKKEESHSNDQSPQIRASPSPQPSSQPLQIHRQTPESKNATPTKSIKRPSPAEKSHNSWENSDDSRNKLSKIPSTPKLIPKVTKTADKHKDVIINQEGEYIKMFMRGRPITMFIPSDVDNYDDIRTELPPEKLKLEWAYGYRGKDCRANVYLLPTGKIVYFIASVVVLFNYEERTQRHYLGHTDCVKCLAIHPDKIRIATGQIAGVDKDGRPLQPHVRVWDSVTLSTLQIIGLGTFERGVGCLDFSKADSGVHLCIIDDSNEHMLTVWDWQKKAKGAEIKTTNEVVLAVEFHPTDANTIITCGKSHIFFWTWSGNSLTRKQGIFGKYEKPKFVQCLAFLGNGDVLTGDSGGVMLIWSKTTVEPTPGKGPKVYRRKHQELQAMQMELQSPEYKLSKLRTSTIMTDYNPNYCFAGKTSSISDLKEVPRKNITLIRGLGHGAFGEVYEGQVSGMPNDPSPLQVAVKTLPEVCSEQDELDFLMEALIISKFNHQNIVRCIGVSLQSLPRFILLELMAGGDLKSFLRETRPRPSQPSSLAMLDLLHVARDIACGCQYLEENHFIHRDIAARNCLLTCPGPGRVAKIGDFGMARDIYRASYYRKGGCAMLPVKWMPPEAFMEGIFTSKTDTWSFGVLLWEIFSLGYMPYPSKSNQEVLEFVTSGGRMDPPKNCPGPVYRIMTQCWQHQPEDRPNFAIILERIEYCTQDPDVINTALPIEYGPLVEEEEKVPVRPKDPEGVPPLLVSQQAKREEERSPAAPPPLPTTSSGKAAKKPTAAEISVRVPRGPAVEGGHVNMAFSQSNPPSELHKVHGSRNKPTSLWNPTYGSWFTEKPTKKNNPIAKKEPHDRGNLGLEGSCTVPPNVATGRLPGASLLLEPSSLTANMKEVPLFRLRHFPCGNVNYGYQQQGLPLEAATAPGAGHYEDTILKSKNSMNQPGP

Row | SMILES | IC50 [1] [nM] | Ki [2] [nM] | IC50 (ALK enzyme) [nM] | IC50 (cMet enzyme) [nM] | IC50 ([1]; read-out: ELISA assay for WT EML4-ALK (IC50), cellular phospho-ALK (Tyr1604), NIH-3T3 EML4-ALK wt v1 cells, 1 hour) [nM] | IC50 (ALK enzyme; purified ALK enzyme 10 nM, ATP 25 μM (Km)) [nM]
1 | COc1ccc(F)cc1[C@@H](C)Oc1cc(-c2ccnn2C)nnc1N [Example 56, 4-[(1R)-1-(5-fluoro-2-methoxyphenyl)ethoxy]-6-(1-methyl-1H-pyrazol-5-yl)pyridazin-3-amine] | 361 | 6.4 | 47.5 | > 20000 |  | 
2 | CC(Oc1cc(-c2ccnn2C)nnc1N)c1cc(F)ccc1-n1cccn1 (centres unmarked) [Example 55, 4-{1-[5-fluoro-2-(1H-pyrazol-1-yl)phenyl]ethoxy}-6-(1-methyl-1H-pyrazol-5-yl)pyridazin-3-amine] | 1760 | 43 | 87.6 | > 20000 |  | 
3 | COc1ccc(F)cc1C(C)Oc1cc(-c2cccn(C)c2=O)cnc1N (centres unmarked) [Example 15, 6′-amino-5′-[1-(5-fluoro-2-methoxyphenyl)ethoxy]-1-methyl-3,3′-bipyridin-2(1H)-one] | 904 | 16 | 177 | > 20000 |  | 
4 | COc1ccc(F)cc1C(C)Oc1cc(-c2c(C)nn(C)c2C)cnc1N (centres unmarked) [Example 7, 3-[1-(5-fluoro-2-methoxyphenyl)ethoxy]-5-(1,3,5-trimethyl-1H-pyrazol-4-yl)pyridin-2-amine] | 33 | 0.536 | 44.9 | 10200 |  | 
5 | CC(Oc1cc(-c2cn(C)cn2)cnc1N)c1cc(F)ccc1Cl (centres unmarked) [Example 23, 3-[1-(2-chloro-5-fluorophenyl)-ethoxy]-5-(1-methyMH-imidazol-4-yl)pyridin-2-amine] |  | 45 |  | > 19100 | 1080 | 271
6 | COc1ccc(F)cc1C(C)Oc1cc(-c2cccnc2OCCO)cnc1N (centres unmarked) [Example 19, 2-{6′-Amino-5′-[1-(5-fluoro-2-methoxy-phenyl)-ethoxy]-[3,3]bipyridinyl-2-yloxy}-ethanol] | 53.5 | 1.05 | 78.7 | > 19700 |  | 
7 | COc1ccc(F)cc1C(C)Oc1cc(-c2cnc(N)nc2C)cnc1N (centres unmarked) [Example 5, 5-{6-amino-5-[1-(5-fluoro-2-methoxyphenyl)ethoxy]-pyridin-3-yl}-4-methylpyrimidin-2-amine] |  |  | 48 | 13000 |  | 
8 | COc1ccc(F)cc1C(C)Oc1cc(-c2scnc2CO)cnc1N (centres unmarked) [Example 14, (5-{6-amino-5-[1-(5-fluoro-2-methoxyphenyl)ethoxy]-pyridin-3-yl}-1,3-thiazol-4-yl)methanol] |  |  | 74.8 | 8290 |  | 
9 | COc1ccc(F)cc1C(C)Oc1cc(-c2cccnc2O)cnc1N (centres unmarked) [Example 8, 6′-amino-5′-[1-(5-fluoro-2-methoxyphenyl)ethoxy]-3,3′-bipyridin-2-ol] |  |  | 98.2 | 17400 |  | 
10 | COc1ccc(F)cc1[C@@H](C)Oc1cc(-c2cncn2C)cnc1N [Example 22, 3-[(1R)-1-(5-fluoro-2-methoxyphenyl)-ethoxy]-5-(1-methyl-1H-imidazol-5-yl)pyridin-2-amine] | 47.5 |  | 38 | 3680 |  | 
11 | COc1ccc(F)cc1C(C)Oc1cc(-c2c(C)n[nH]c2C)cnc1N (centres unmarked) [Example 6, 5-(3,5-dimethyl-1H-pyrazol-4-yl)-3-[1-(5-fluoro-2-methoxyphenyl)ethoxy]-pyridin-2-amine] |  | 0.62 | 33.6 | 6740 |  | 
12 | COc1ccc(F)cc1[C@@H](C)Oc1cc(-c2c(C)ncn2C)cnc1N [Example 25, 5-(1,4-dimethyl-1H-imidazol-5-yl)-3-[(1R)-1-(5-fluoro-2-methoxyphenyl)-ethoxy]pyridin-2-amine] |  |  | 38.2 | 13200 |  | 
13 | Cc1n[nH]cc1-c1cnc(N)c(OC(C)c2cc(F)ccc2C#N)c1 (centres unmarked) [Example 38, 2-(1-{[2-amino-5-(3-methyl-1H-pyrazol-4-yl)pyridin-3-yl]oxy}ethyl)-4-fluorobenzonitrile] |  |  |  | 4050 |  | 
14 | Cc1n[nH]cc1-c1cnc(N)c(O[C@H](C)c2cc(F)ccc2C#N)c1 [Example 40, 2-[(1R)-1-{[2-amino-5-(3-methyl-1H-pyrazol-4-yl)pyridin-3-yl]oxy}ethyl]-4-fluorobenzonitrile] |  |  |  | 1350 |  | 
15 | COc1ccc(F)cc1C(C)Oc1cc(-c2ccnn2C)cnc1N (centres unmarked) [Example 43, 3-[1-(5-fluoro-2-methoxyphenyl)-ethoxy]-5-(1-methyl-1H-pyrazol-5-yl)pyridin-2-amine monohydrochloride] |  | < 0.249 | 34.9 | 5090 |  | 

Second part, the molecule after the results:

Row | IC50 [1] [nM] | Ki [2] [nM] | IC50 (ALK enzyme) [nM] | IC50 (cMet enzyme) [nM] | IC50 ([1]; read-out: ELISA assay for WT EML4-ALK (IC50), cellular phospho-ALK (Tyr1604), NIH-3T3 EML4-ALK wt v1 cells, 1 hour) [nM] | IC50 (ALK enzyme; purified ALK enzyme 10 nM, ATP 25 μM (Km)) [nM] | SMILES
16 |  |  |  | 6110 |  |  | C[C@@H](Oc1cc(-c2ccnn2C)cnc1N)c1cc(F)ccc1-n1nccn1 [Example 30, 3-{(1R)-1-[5-fluoro-2-(2H-1,2,3-triazol-2-yl)phenyl]ethoxy}-5-(1-methyl-1H-pyrazol-5-yl)pyridin-2-amine]
17 |  |  |  | 14400 |  |  | C[C@@H](Oc1cc(-c2cnnn2C)cnc1N)c1cc(F)ccc1-n1nccn1 [Example 21, 3-{(1R)-1-[5-fluoro-2-(2H-1,2,3-triazol-2-yl)phenyl]-ethoxy)-5-(1-methyl-1H-1,2,3-triazol-5-yl)pyridin-2-amine]
18 | 421 | 8.1 | 92.6 | > 20000 |  |  | COc1ccc(F)cc1C(C)Oc1cc(-c2c(CO)cnn2C)cnc1N (centres unmarked) [Example 18, (5-{6-amino-5-[1-(5-fluoro-2-methoxyphenyl)ethoxy]pyridin-3-yl}-1-methyl-1H-pyrazol-4-yl)methanol]
19 |  |  |  | 6850 |  |  | COc1ncccc1-c1cnc(N)c(OC(C)c2cc(F)ccc2-n2nccn2)c1 (centres unmarked) [Example 46, 5-{1-[5-fluoro-2-(2H-1,2,3-triazol-2-yl)phenyl]-ethoxy}-2′-methoxy-3,3′-bipyridin-6-amine]
20 |  |  | 63.5 | 13000 |  |  | C[C@@H](Oc1cc(-c2scnc2CO)cnc1N)c1cc(F)ccc1-n1nccn1 [Example 28]
21 | 361 |  | 86 | > 20000 |  |  | COc1ccc(F)cc1C(C)Oc1cc(-c2c(C)nnn2C)cnc1N (centres unmarked) [Example 10, 5-(1,4-dimethyl-1H-1,2,3-triazol-5-yl)-3-[1-(5-fluoro-2-methoxyphenyl)ethoxy]-pyridin-2-amine]
22 |  |  | 114 | 13100 |  |  | Cc1n[nH]c(C)c1-c1cnc(N)c(OC(C)c2cc(F)ccc2-n2nccn2)c1 (centres unmarked) [Example 49, 5-(3,5-dimethyl-1H-pyrazol-4-yl)-3-{1-[5-fluoro-2-(2H-1,2,3-triazol-2-yl)phenyl]-ethoxy}pyridin-2-amine]
23 |  |  |  | 5610 |  |  | Cc1[nH]ncc1-c1cnc(N)c(OC(C)c2cc(F)ccc2F)c1 (centres unmarked) [Example 35, 3-[1-(2,5-difluorophenyl)ethoxy]-5-(5-methyl-1H-pyrazo-4-yl)pyridin-2-amine]
24 |  |  |  | 4500 |  |  | Cc1n[nH]cc1-c1cnc(N)c(OC(C)c2cc(F)ccc2-n2nccn2)c1 (centres unmarked) [Example 39, 3-{1-[5-fluoro-2-(2H-1,2,3-triazol-2-yl)phenyl]-ethoxy}-5-(3-methyl-1H-pyrazol-4-yl)pyridin-2-amine]
25 | 151 |  | 30 | 7480 |  |  | C[C@@H](Oc1cc(-c2c(F)cnn2C)cnc1N)c1cc(F)ccc1-n1nccn1 [Example 29]
26 | 40.9 | 0.56 |  |  |  |  | Cc1n[nH]cc1-c1cnc(N)c(O[C@H](C)c2cc(F)ccc2-n2nccn2)n1 [Example 67, 3-{(1R)-1-[5-fluoro-2-(2H-1,2,3-triazol-2-yl)phenyl]ethoxy}-5-(3-methyl-1H-pyrazol-4-yl)pyrazin-2-amine]
27 |  |  |  | 13000 |  |  | CC(Oc1cc(-c2ccnn2C)cnc1N)c1cc(F)ccc1-n1nccn1 (centres unmarked) [Example 31, 3-{1-[5-fluoro-2-(2H-1,2,3-triazol-2-yl)phenyl]-ethoxy)-5-(1-methyl-1H-pyrazol-5-yl)pyridin-2-amine]
28 | 0.793 | < 0.2 |  |  |  |  | Cc1nn(CC(O)CO)c(C)c1-c1cnc(N)c(O[C@H](C)c2cc(F)ccc2-n2nccn2)c1 (stereo partly drawn) [Example 91, 3-[4-(6-amino-5-{(1R)-1-[5-fluoro-2-(2H-1,2,3-triazol-2-yl)phenyl]ethoxy}pyridin-3-yl)-3,5-dimethyl-1H-pyrazol-1-yl]propane-1,2-diol]
29 | 10.1 | 0.26 |  |  |  |  | C[C@@H](Oc1cc(-c2cccc(S(N)(=O)=O)c2)cnc1N)c1cc(F)ccc1-n1nccn1 [Example 113, 3-(6-amino-5-{(1R)-1-[5-fluoro-2-(2H-1,2,3-triazol-2-yl)phenyl]ethoxy}pyridin-3-yl)benzenesulfonamide]
30 | 3.75 | < 0.2 |  |  |  |  | CNS(=O)(=O)c1cc(-c2cnc(N)c(O[C@H](C)c3cc(F)ccc3-n3nccn3)c2)ccc1OC [Example 142, 5-(6-amino-5-{(1R)-1-[5-fluoro-2-(2H-1,2,3-triazol-2-yl)phenyl]ethoxy}pyridin-3-yl)-2-methoxy-N-methylbenzenesulfonamide]
